Reference: patent publication US11549123B2, “Plant EPSP synthases and methods of use” (PIONEER HI-BRED INTERNATIONAL, INC., priority 2015, dated 2023)

Molecular target: T1, Helianthus annuus EPSPS, native, SEQ ID NO:9 (Helianthus annuus, UniProt A0A251S0N3)
T1 sequence (A0A251S0N3 67-518): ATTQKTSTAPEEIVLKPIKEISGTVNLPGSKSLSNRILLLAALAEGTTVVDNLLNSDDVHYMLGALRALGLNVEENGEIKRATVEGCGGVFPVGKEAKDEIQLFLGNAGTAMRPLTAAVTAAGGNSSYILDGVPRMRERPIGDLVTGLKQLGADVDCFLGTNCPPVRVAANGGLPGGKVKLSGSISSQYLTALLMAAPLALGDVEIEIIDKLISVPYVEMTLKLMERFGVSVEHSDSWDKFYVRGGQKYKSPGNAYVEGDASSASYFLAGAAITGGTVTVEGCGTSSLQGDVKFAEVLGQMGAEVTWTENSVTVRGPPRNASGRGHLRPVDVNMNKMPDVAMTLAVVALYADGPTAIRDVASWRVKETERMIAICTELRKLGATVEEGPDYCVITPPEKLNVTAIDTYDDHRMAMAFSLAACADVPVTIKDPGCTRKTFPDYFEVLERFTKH
Test: EPSPS substrate saturation kinetics, native sunflower
Type: biochemical
Protocol: EPSPS activity was determined by quantifying the phosphate generated from the EPSPS reaction. Release of inorganic phosphate was coupled to reaction with 2-amino-6-mercapto-7-methylpurine ribonucleoside, catalyzed by purine-nucleoside phosphorylase (M R Webb, Proc. Natl. Acad. Sci. 89:4884-4887, 1992). The absorbance change that occurs was monitored at 360 nm, where the extinction is 11,200 M^−1 cm^−1, with a Spectramax plate reader (Molecular Devices). To determine kinetic parameters, the varied substrate was present at seven concentrations (the eighth being the blank, containing no substrate) ranging from 4 to 400 uM and the unvaried substrate present at saturation. Six microliters of 50-fold concentrated stock solutions of the varied substrate were placed in the wells of the 96-well assay plate and reactions were started with the addition of a mixture containing 25 mM Hepes, pH 7, 100 mM KCl, 0.3 mM 2-amino-6-mercapto-7-methylpurine ribonucleosde, 1 uM (1 unit/ml) purine-nucleoside phosphorylase (Sigma N8264) and 200 uM of the non-varied substrate. Reactions were monitored with a Spectramax plate reader. The Michaelis-Menten kinetics protocol of the Spectramax software was customized for the substrate concentrations used. The software returns values of KM and Vmax using the Lineweaver-Burke transformation of the Michaelis-Menten equation. To determine kcat, Vmax (uM/min) was divided by the enzyme concentration (uM). […] KI was then calculated from the following form of the Michaelis-Menten equation for competitive inhibition: KI=KM[I]/(KM app−KM) KM approximates the dissociation constant of the enzyme-substrate complex while kcat is the rate of conversion of substrate to product when the substrate concentration is saturating. kcat/KM is a widely accepted parameter for catalytic efficiency when substrate concentration is low (˜KM). […] The parameter kcat/KM×KI is used to quantify both catalytic efficiency and insensitivity and thus the overall fitness of the enzyme.
Native EPSPS amino acid sequences of rice (Oryza sativa) (SEQ ID NO:7), sorghum (Sorghum halepense) (SEQ ID NO:8), and sunflower (Helianthus annus) (SEQ ID NO:9) including the chloroplast transit peptide sequences were assembled and analyzed for mapping the corresponding amino acid mutations from the maize 868-H6. If complete EPSPS sequences were not available, appropriate adjustments were made based on sequence alignments and conserved residue mapping.
There is no complete sequence available for Helianthus annuus. […]
ChloroP Prediction Server (Emanuelsson, O. et al. 1999. Protein Sci. 8(5):978-84) was used to approximate the amino terminus of the mature EPSPS proteins. […] The synthetic genes were cloned into a plasmid vector and expressed, purified and analyzed as described in Example 1.

SMILES | kcat (PEP varied) [s⁻¹] | Km (read-out: KM (PEP), PEP varied) [µM] | Ki [nM] | (kcat/KM)*KI (PEP as substrate, glyphosate as inhibitor)
C=C(OP(=O)(O)O)C(=O)O [PEP, phosphoenolpyruvate] | 29.52 | 18.8 |  | 
O=C(O)CNCP(=O)(O)O [glyphosate, N-phosphonomethylglycine] |  |  | 150 | 14
